Experimental findings from publication PMC11955521, “A GTP-driven central carbon metabolism in the cellulolytic bacterium Ruminiclostridium cellulolyticum” (Communications Biology, 2025) are described below.

Structures are written as SMILES.

The target of this test is T1, Pyruvate kinase (PK) (Ruminiclostridium cellulolyticum, UniProt B8I6Q5).
T1 construct: gene Ccel_2569; full-length, C-terminal His tag (pET28a), E. coli BL21(DE3), Ni-NTA and anion exchange
T1 sequence (B8I6Q5 1-580): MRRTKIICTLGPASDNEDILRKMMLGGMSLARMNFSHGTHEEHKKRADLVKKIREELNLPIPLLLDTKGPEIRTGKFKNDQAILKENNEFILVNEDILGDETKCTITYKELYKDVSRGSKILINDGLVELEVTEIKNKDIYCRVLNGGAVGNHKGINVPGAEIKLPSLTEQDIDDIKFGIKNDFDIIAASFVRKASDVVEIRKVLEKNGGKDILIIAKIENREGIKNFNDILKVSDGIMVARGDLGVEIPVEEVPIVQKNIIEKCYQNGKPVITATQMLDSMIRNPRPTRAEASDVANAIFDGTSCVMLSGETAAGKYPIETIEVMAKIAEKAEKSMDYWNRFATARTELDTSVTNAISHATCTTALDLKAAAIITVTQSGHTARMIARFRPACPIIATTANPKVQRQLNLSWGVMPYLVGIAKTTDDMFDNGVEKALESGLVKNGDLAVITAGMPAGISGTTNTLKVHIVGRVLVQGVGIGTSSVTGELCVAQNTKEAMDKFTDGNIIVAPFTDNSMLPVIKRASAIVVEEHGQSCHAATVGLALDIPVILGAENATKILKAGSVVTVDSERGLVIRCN
Briefly: activation of PK, HPLC-RI of pyruvate. The format is biochemical. As to conditions: allosteric activator only with GDP as co-substrate; FBP 0.5, 3, 10 mM; 20 mM MgCl2, 30 mM KCl, pH 7.0, 37 °C.

Turning to `O=P(O)(O)OC[C@H]1OC(O)(COP(=O)(O)O)[C@@H](O)[C@@H]1O` (stereo partly shown) [FBP], the “activation of PK, HPLC-RI of pyruvate” value is listed as “FBP was found to act as a potent allosteric activator only when GDP is the co-substrate”.
